Test results published in patent publication US6765129B1, “Overexpression of a DNA sequence coding for a 1-desoxy-d-xylulose-5-phosphate reductoisomerase in plants” (BASF Aktiengesellschaft, priority 1999, dated 2004).

Columns and labels:
[1] = test system: Arabidopsis thaliana DXPRI; assay: DXPRI enzyme test (heterologously expressed in E. coli, TLC/autoradiography of 14C product); assay type: biochemical
Method: The transgenic strain was incubated in the growth medium “2×YT” (per 1 l: Bacto-tryptone 16 g, yeast extract 10 g, NaCl 5 g). The cells were grown at 37° C. to an OD560 nm of 0.6. After IPTG (1 MM) had been added, they were cultured for a further 10 minutes at 37° C. and then for a further 4 hours at 22° until they were harvested. The cells were centrifuged off and washed in 1% NaCl. After the cells had been disrupted (50 to 500 ml of cell culture (OD560 nm of 1.0) by means of a French press, a crude protein extract was used for enzyme tests (in 4 ml of extraction buffer (Tris/HCl (pH 7.5) 100 mM, MgCl2 5 mM, DTT 2 mM, PMSF 0.1 mM). For storage, the crude extracts together with 20% of glycerol were frozen at −20° C.
For the enzyme test, 15 μl (diluted to 1 to 7 mg of protein/ml) of protein extract were incubated for 30 minutes at 30° C. with MnCl2 (1 mM), NaF (5 mM), NADPH2 (0.5 mM) and ^14C-1-deoxy-D-xylulose-5-phosphate (0.25 mM, 3 kBq). The reaction was stopped at 100° C. (30 seconds) by adding CaCl2 (to 100 mM) and alkaline phosphatase (0.5 units). The product was dephosphorylated for 2 hours at 30° C. Detection was carried out by subjecting the product to separation by thin-layer chromatography on silica gel 60 (Merck) with acetone/ethyl acetate/water (50+50+2) with subsequent evaluation by Instant Imager. […]

barley seedlings = assay: plant assay: pigment neogenesis in etiolated barley seedlings; assay type: in vivo; settings: barley seedlings subjected to fosmidomycin treatment, FIG. 8
Description: Since this biosynthetic pathway is a metabolic pathway which is exclusively located in the chloroplasts, it offers optimal target enzymes for the development of inhibitors. Since, according to current knowledge, no enzyme which is identical with, or similar to, Arabidopsis thaliana DXPRI is present in other higher organisms, it can be assumed that inhibitors should have a very specific action on plants. The site of action of an inhibitor, namely fosmidomycin (3-(N-formyl-N-hydroxyamino)propylphosphonic acid; Fujisawa Pharmaceutical Co.) was identified as being a DXPRI. […] The following abbreviations were used in FIG. 7: DOX=1-deoxy-D-xylulose, ME=methylerythritol. The same action is found in a plant assay in which barley seedlings are subjected to fosmidomycin treatment and then examined for their chlorophyll and carotenoid content.
FIG. 8. Effect of fosmidomycin on pigment neogenesis in etiolated barley seedlings.

mevalonate formation = settings: cited from earlier work

| Compound | inhibition of the enzymatic activity of DXPRI ([1]; biochemical assay, FIG. 7) | formation of ME (methylerythritol) ([1]; fosmidomycin at various concentrations, crude protein extract, 14C-1-deoxy-D-xylulose-5-phosphate substrate) | carotenoid content (barley seedlings) | chlorophyll content (barley seedlings) | sterol biosynthesis in the cytoplasma (mevalonate formation; cytoplasma) | prenyl lipid formation in the plastids (mevalonate formation; plastids) |
| --- | --- | --- | --- | --- | --- | --- |
| O=CN(O)CCCP(=O)(O)O [fosmidomycin, 3-(N-formyl-N-hydroxyamino)propylphosphonic acid] | efficient inhibition | inhibited efficiently | greatly reduced | greatly reduced | – | – |
| mevinolin | – | – | – | – | inhibition | remains unaffected |
